From patent US7521182B2, “Selection system containing non-antibiotic resistance selection marker” (priority 2003, dated 2009)

What was measured:
Assay type in all cases: cell-based, E. coli
AG1ΔaraD = assay: Testing of arabinose sensitivity (M9 medium with glycerol, overnight culture, OD600); details: for AG1ΔaraD OD600: overnight at 37° C.
Method: (§1) The arabinose sensitivity was tested on the produced AG1ΔaraD and JM109ΔaraD strains. One colony of AG1ΔaraD and one colony of JM109ΔaraD were each inoculated into 2 ml LB. The cultures were grown for 8 hours, diluted 1:100 into M9 medium containing 0.2% glycerol, 25 μg/ml kanamycin, 0.01% thiamine (0.05% proline for JM109ΔaraD) and different concentrations of L-arabinose were added in the growth medium. The cultures were grown overnight at 37° C. in shaker incubator and OD600 was measured (Table 1).

JM109ΔaraD = assay: as above; details: for JM109ΔaraD OD600: overnight at 37° C.
Method: as §1

[1] = tested on: AG1ΔaraD, DH5alphaT1 ΔaraD and JM109ΔaraD; assay: Arabinose sensitivity at lower concentrations of L-arabinose (FIG. 18)
Method: as §1
The arabinose sensitivity was further tested on AG1ΔaraD, DH5alphaT1 ΔaraD and JM109ΔaraD as above but using lower concentrations of L-arabinose.

[2] = tested on: strains with intact araD gene; assay: L-arabinose sensitivity in M9 and yeast extract medium (FIG. 19); details: 0,2% and 2% arabinose, overnight at 37° C.
Method: (§2) Additionally the L-arabinose sensitivity was tested in M9 and yeast extract medium with different glucose and arabinose concentrations (0.2% glucose, 0.2% arabinose, 2% arabinose). The cultures were incubated at 37° C. in a shaker incubator overnight. Then the OD600 was measured to quantitate the cell density.

ΔaraD strains = assay: as above; details: 0,2% and 2% arabinose, overnight at 37° C.
Method: as §2

AG1 ΔaraD = assay: Testing of arabinose sensitivity (M9 medium with 0.5% yeast extract, OD600)
Method: (§3) The arabinose sensitivity was tested on the E. coli DH5alphaT1 ΔaraDΔulaFΔsgbE and AG1ΔaraDΔulaFΔsgbE strains produced and compared to those of E. coli DH5alphaT1ΔaraD and AG1ΔaraD strains. One colony of each strain was inoculated into 2 ml of M9 medium containing 0.5% yeast extract, 25 μg/ml of kanamycin, 0.2% glucose only or 0.2% or 2% L-arabinose, respectively.

AG1ΔaraD ΔulaFΔsgbE = assay: as above
Method: as §3

DH5alphaT1 ΔaraD = assay: as above
Method: as §3

[3] = tested on: DH5alphaT1 ΔaraDΔulaF ΔsgbE; assay: as above
Method: as §3

[4] = tested on: host deficient of the araD gene; assay: Amount of arabinose in the growth medium for selection
Text: Any growth medium suitable for culturing E. coli cells can be used. For commercial production the growth medium will naturally be optimized in terms of the yield. Examples of suitable growth media are commercially available growth media, such as M9 and LB (available from several manufacturers, such as Fermentas, Lithuania). The amount of arabinose added in the growth medium is not critical but naturally arabinose should be present in an amount that is sufficient for the total culturing period. As low amount as 0.1% has been found sufficient for the selection. Typically arabinose is added to the medium in an amount of about 0.1% to about 2.0%, preferably in an amount of about 0.2% to about 1,0%, most preferably 0.2% to about 0.5%. However the effect of L-arabinose is observed at concentrations as low as 0.01% and L-arabinose can be added up to 5% in the growth medium. In a special embodiment, where L-arabinose is used both as a selecting agent and as a limited carbon source, 0.2% of L-arabinose is a suitable amount to be added into the growth medium.

O=C[C@H](O)[C@@H](O)[C@@H](O)CO [L-arabinose]
AG1ΔaraD OD600 (AG1ΔaraD; 0.1% L-arabinose): 0.03
AG1ΔaraD OD600 (AG1ΔaraD; 0.2% L-arabinose): 0.030
AG1ΔaraD OD600 (AG1ΔaraD; 0.5% L-arabinose): 0.030
AG1ΔaraD OD600 (AG1ΔaraD; 1% L-arabinose): 0.024
AG1ΔaraD OD600 (AG1ΔaraD; 2% L-arabinose): 0.017
amount of L-arabinose enough to inhibit the growth (AG1ΔaraD; Table 1): 0.1%
JM109ΔaraD OD600 (JM109ΔaraD; 0.1% L-arabinose): 0.03
JM109ΔaraD OD600 (JM109ΔaraD; 0.2% L-arabinose): 0.026
JM109ΔaraD OD600 (JM109ΔaraD; 0.5% L-arabinose): 0.020
JM109ΔaraD OD600 (JM109ΔaraD; 1% L-arabinose): 0.025
JM109ΔaraD OD600 (JM109ΔaraD; 2% L-arabinose): 0.021
amount of L-arabinose enough to inhibit the growth (JM109ΔaraD; Table 1): 0.1%
amount of L-arabinose enough to inhibit the growth [1]: 0.0005%
effect on growth of strains with intact araD gene [2]: not inhibited
effect on growth of the ΔaraD strains (ΔaraD strains): inhibited the growth
OD600 Glc + 0.2% L-arabinose (AG1 ΔaraD; 0.2% L-arabinose): 0.82
OD600 Glc + 2% L-arabinose (AG1 ΔaraD; 2% L-arabinose): 0.26
OD600 Glc + 0.2% L-arabinose (AG1ΔaraD ΔulaFΔsgbE; 0.2% L-arabinose): 0.82
OD600 Glc + 2% L-arabinose (AG1ΔaraD ΔulaFΔsgbE; 2% L-arabinose): 0.35
OD600 Glc + 0.2% L-arabinose (DH5alphaT1 ΔaraD; 0.2% L-arabinose): 0.95
OD600 Glc + 2% L-arabinose (DH5alphaT1 ΔaraD; 2% L-arabinose): 0.35
OD600 Glc + 0.2% L-arabinose ([3]; 0.2% L-arabinose): 0.75
OD600 Glc + 2% L-arabinose ([3]; 2% L-arabinose): 0.28
amount of arabinose found sufficient for the selection [4]: 0.1%
concentration at which the effect of L-arabinose is observed [4]: 0.01%
